Assay results from patent US20260232767A1, “INTERLEUKIN-23 RECEPTOR ANTAGONIST PEPTIDES FOR USE IN THE TREATMENT OF PSORIASIS” (Janssen Pharmaceutica NV, priority 2023, published 2026).
Read-outs that look alike come from different tables or passages of the source.

Assay: Plasma concentrations (PK), Example 1
Type: in vivo, human
Conditions: human, plasma, oral; for level at 1344 h: Week 8; for level at 168 h: Week 1, Trough; for level at 672 h: Week 4
Description: For QD dosing, peak concentration was defined as any PK sample taken between 0.25 to <6 hours after the last morning dose and trough concentration was at least 20 hours after the last morning dose. For BID dosing, peak concentration was defined as any PK sample taken between 0.25 to <4 hours after the last dose and trough concentration was at least 8 hours after the last dose.

[1] = 50 mg, 50 mg QD, Peak, read-out: Plasma concentration, Geometric Mean
[2] = 50 mg, 50 mg QD, Peak, read-out: Plasma concentration, Mean
[3] = 50 mg, 50 mg QD, Peak, read-out: Plasma concentration, Median

Compound `CC(=O)NCCCC[C@@H]1NC(=O)[C@H](Cc2c[nH]c3c(C)cccc23)NC(=O)[C@H]([C@@H](C)O)NC(=O)[C@H](CC(N)=O)NC(=O)[C@@H](NC(C)=O)C(C)(C)SSC(C)(C)[C@@H](C(=O)N[C@@H](Cc2ccc(OCCN)cc2)C(=O)N[C@@H](Cc2ccc3ccccc3c2)C(=O)NC2(C(=O)N[C@@H](CCC(=O)O)C(=O)N[C@@H](CC(N)=O)C(=O)N[C@@H](Cc3cccnc3)C(=O)N(C)CC(N)=O)CCOCC2)NC1=O` [IL-23 receptor antagonist peptide, Ac-[Pen]*-N-T-[W(7-Me)]-[Lys(Ac)]-[Pen]*-Phe[4-(2-aminoethoxy)]-[2-Nal]-[THP]-E-N-[3-Pal]-Sarc-NH2 (*[Pen]-[Pen]* formdisulfidebond)] has a level at 1344 h (25 mg, 25 mg QD, Trough, read-out: Plasma concentration, Median) of 0.06 ng/mL, a level at 2016 h (25 mg, 25 mg QD, Week 12, Trough, read-out: Plasma concentration, Mean) of 0.052 ng/mL and a level at 2016 h (25 mg, weight >90 kg, 25 mg BID, Week 12, Intermediate, read-out: Plasma concentration, Geometric Mean) of 0.214 ng/mL. It also gave a level at 2016 h (25 mg, weight >90 kg, 25 mg BID, Week 12, Peak, read-out: Plasma concentration, Geometric Mean) of 0.32 ng/mL, a level at 2016 h (25 mg, weight >90 kg, 25 mg BID, Week 12, Peak, read-out: Plasma concentration, Mean) of 0.391 ng/mL and a level at 2016 h (25 mg, weight >90 kg, 25 mg BID, Week 12, Peak, read-out: Plasma concentration, Median) of 0.365 ng/mL. For the same compound, the level at 2688 h (25 mg, weight >90 kg, 25 mg BID, Week 16, Intermediate, read-out: Plasma concentration, Mean) was 0.181 ng/mL, the level at 2688 h (25 mg, weight >90 kg, 25 mg BID, Week 16, Trough, read-out: Plasma concentration, Geometric Mean) was 0.144 ng/mL and the level at 2688 h (25 mg, weight >90 kg, 25 mg BID, Week 16, Trough, read-out: Plasma concentration, Mean) was 0.152 ng/mL. The level at 2688 h (25 mg, weight >90 kg, 25 mg BID, Week 16, Trough, read-out: Plasma concentration, Median) was 0.138 ng/mL, the level at 168 h (25 mg, weight >90 kg, 25 mg QD, read-out: Plasma concentration, Mean) was 0.044 ng/mL and the level at 2016 h (25 mg, weight >90 kg, 25 mg QD, Week 12, Peak, read-out: Plasma concentration, Geometric Mean) was 0.236 ng/mL. The level at 2016 h (25 mg, weight >90 kg, 25 mg QD, Week 12, Peak, read-out: Plasma concentration, Mean) was 0.281 ng/mL, the level at 2016 h (25 mg, weight >90 kg, 25 mg QD, Week 12, Peak, read-out: Plasma concentration, Median) was 0.291 ng/mL and the level at 2688 h (25 mg, weight >90 kg, 25 mg QD, Week 16, Intermediate, read-out: Plasma concentration, Mean) was 0.165 ng/mL. It also gave a level at 2688 h (25 mg, weight >90 kg, 25 mg QD, Week 16, Trough, read-out: Plasma concentration, Geometric Mean) of 0.063 ng/mL, a level at 2688 h (25 mg, weight >90 kg, 25 mg QD, Week 16, Trough, read-out: Plasma concentration, Mean) of 0.066 ng/mL and a level at 2688 h (25 mg, weight >90 kg, 25 mg QD, Week 16, Trough, read-out: Plasma concentration, Median) of 0.047 ng/mL. The level at 2016 h (25 mg, weight ≤90 kg, 25 mg QD, Week 12, Trough, read-out: Plasma concentration, Mean) was 0.045 ng/mL, the level at 672 h [1] was 0.481 ng/mL and the level at 672 h [2] was 0.564 ng/mL. The level at 672 h [3] was 0.539 ng/mL, the level at 1344 h (50 mg, 50 mg QD, Intermediate, read-out: Plasma concentration, Geometric Mean) was 0.441 ng/mL and the level at 1344 h (50 mg, 50 mg QD, Intermediate, read-out: Plasma concentration, Mean) was 0.441 ng/mL. The level at 1344 h (50 mg, 50 mg QD, Intermediate, read-out: Plasma concentration, Median) was 0.441 ng/mL, the level at 1344 h [1] was 0.853 ng/mL and the level at 1344 h [2] was 1.1 ng/mL. It also gave a level at 1344 h [3] of 0.78 ng/mL, a level at 1344 h (50 mg, 50 mg QD, Trough, read-out: Plasma concentration, Geometric Mean) of 0.111 ng/mL and a level at 1344 h (50 mg, 50 mg QD, Trough, read-out: Plasma concentration, Mean) of 0.147 ng/mL. For the same compound, the level at 1344 h (50 mg, 50 mg QD, Trough, read-out: Plasma concentration, Median) was 0.112 ng/mL, the level at 2016 h (50 mg, 50 mg QD, Week 12, Trough, read-out: Plasma concentration, Mean) was 0.085 ng/mL and the level at 168 h (50 mg, weight >90 kg, 50 mg QD, read-out: Plasma concentration, Mean) was 0.073 ng/mL. For the same compound, the level at 2016 h (50 mg, weight >90 kg, 50 mg QD, Week 12, Peak, read-out: Plasma concentration, Geometric Mean) was 0.551 ng/mL, the level at 2016 h (50 mg, weight >90 kg, 50 mg QD, Week 12, Peak, read-out: Plasma concentration, Mean) was 0.786 ng/mL and the level at 2016 h (50 mg, weight >90 kg, 50 mg QD, Week 12, Peak, read-out: Plasma concentration, Median) was 0.388 ng/mL. It also gave a level at 2688 h (50 mg, weight >90 kg, 50 mg QD, Week 16, Intermediate, read-out: Plasma concentration, Mean) of 0.321 ng/mL, a level at 2688 h (50 mg, weight >90 kg, 50 mg QD, Week 16, Trough, read-out: Plasma concentration, Geometric Mean) of 0.105 ng/mL and a level at 2688 h (50 mg, weight >90 kg, 50 mg QD, Week 16, Trough, read-out: Plasma concentration, Mean) of 0.096 ng/mL. The level at 2688 h (50 mg, weight >90 kg, 50 mg QD, Week 16, Trough, read-out: Plasma concentration, Median) was 0.115 ng/mL, the level at 2016 h (50 mg, weight ≤90 kg, 50 mg QD, Week 12, Trough, read-out: Plasma concentration, Mean) was 0.083 ng/mL and the level at 672 h (100 mg, 100 mg BID, Intermediate, read-out: Plasma concentration, Geometric Mean) was 0.756 ng/mL. It also gave a level at 672 h (100 mg, 100 mg BID, Peak, read-out: Plasma concentration, Geometric Mean) of 1.7 ng/mL.
